# Data as given in BindingDB's records for patent US9446044 (DIAXONHIT, 2016).
# Biological target: Dual specificity tyrosine-phosphorylation-regulated kinase 1A (Homo sapiens, UniProt Q13627)
# Assay: HotSpot Technology Assay
# Conditions: pH 7.5; 25 °C
row,IC50 [nM],Compound
1,500,"COc1ccc(Nc2ncnc3ccc4nc(C(=N)N(C)C)sc4c23)cc1 [US9446044, 28]"
2,500,"NC(=O)c1nc2ccc3ncnc(Nc4ccc5c(c4)OCO5)c3c2s1 [US9446044, 39]"
3,500,"COC(=O)c1nc2ccc3ncnc(Nc4ccc5c(c4)OCO5)c3c2s1 [US9446044, 84]"
